Results published in PubChem BioAssay (NCI).
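Dose response: 5 concentrations. Exposure: 48 h. Format: 96-well plates. Endpoint: linear interpolation; highest concentration if not reached. TGI marks complete inhibition of growth.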

Experiments:
Test in all cases: DTP human tumour cell line panel, 48 h
786-0 renal = system: 786-0 renal
A549 NSCLC = system: A549 NSCLC
ACHN renal = system: ACHN renal
BT-549 breast = system: BT-549 breast
CAKI-1 renal = system: CAKI-1 renal
COLO 205 colon = system: COLO 205 colon
DU-145 prostate = system: DU-145 prostate
EKVX NSCLC = system: EKVX NSCLC
HCC-2998 colon = system: HCC-2998 colon
HCT-116 colon = system: HCT-116 colon
HCT-15 colon = system: HCT-15 colon
HOP-62 NSCLC = system: HOP-62 NSCLC
HT29 colon = system: HT29 colon
IGROV1 ovarian = system: IGROV1 ovarian
K-562 leukemia = system: K-562 leukemia
KM12 colon = system: KM12 colon
LOX IMVI melanoma = system: LOX IMVI melanoma
M14 melanoma = system: M14 melanoma
MALME-3M melanoma = system: MALME-3M melanoma
MDA-MB-231 breast = system: MDA-MB-231 breast
MDA-MB-435 = system: MDA-MB-435
MOLT-4 leukemia = system: MOLT-4 leukemia
NCI-H226 lung = system: NCI-H226 lung
NCI-H23 lung = system: NCI-H23 lung
NCI/ADR-RES ovarian = system: NCI/ADR-RES ovarian
OVCAR-3 ovarian = system: OVCAR-3 ovarian
OVCAR-4 ovarian = system: OVCAR-4 ovarian
OVCAR-5 ovarian = system: OVCAR-5 ovarian
OVCAR-8 ovarian = system: OVCAR-8 ovarian
PC-3 prostate = system: PC-3 prostate
RXF 393 renal = system: RXF 393 renal
SF-268 CNS = system: SF-268 CNS
SF-295 CNS = system: SF-295 CNS
SF-539 CNS = system: SF-539 CNS
SK-MEL-2 melanoma = system: SK-MEL-2 melanoma
SK-MEL-28 melanoma = system: SK-MEL-28 melanoma
SK-MEL-5 melanoma = system: SK-MEL-5 melanoma
SK-OV-3 ovarian = system: SK-OV-3 ovarian
SNB-19 CNS = system: SNB-19 CNS
SR leukemia = system: SR leukemia
SW-620 colon = system: SW-620 colon
T-47D breast = system: T-47D breast
TK-10 renal = system: TK-10 renal
UACC-257 melanoma = system: UACC-257 melanoma
UO-31 renal = system: UO-31 renal

Measured: TGI

CC12CCC([C@H](Nc3cc(C(F)(F)F)cc(C(F)(F)F)c3)C1=O)C2(C)C (stereo not given in full)
28 µM: RXF 393 renal
> 100 µM: all other assays above
